{
  "source": "patent US6403630B1",
  "about": "“Treating cancers associated with overexpression of HER-2/neu” (Cornell Research Foundation, Inc., priority 1999, dated 2002)",
  "key": {"[1]": {"tested_on": "HER-2/neu positive colon cancer", "experiment": "Treatment of a patient after resection of HER-2/neu positive colon cancer", "assay_type": "in vivo, human", "settings": "cancer localized to bowel wall, oral Celebrex 400 mg twice a day or Vioxx 50 mg per day for five years", "protocol": "A patient undergoes resection of colon cancer which proves to be HER-2/neu positive. The colon cancer is found to be localized to the bowel wall; there is no evidence of extracolonic cancer. The patient is treated with Celebrex® at oral dose of 400 mg twice a day for five years or an oral dose of Vioxx® at 50 mg per day for five years."}, "[2]": {"tested_on": "HER-2/neu positive breast cancer", "experiment": "Adjuvant therapy of a patient with HER-2/neu positive breast cancer", "assay_type": "in vivo, human", "protocol": "A patient with HER-2/neu positive breast cancer is treated with Celebrex® for adjuvant therapy at an oral dose of 400 mg twice a day for five years after a mastectomy. […] The same result is obtained when the Celebrex® is replaced with an oral dose of 50 mg per day of Vioxx® for five years.\nThe patient also received an oral dose of 400 mg Celebrex® twice daily for one year or an oral dose of 50 mg Vioxx® daily for one year."}, "[3]": {"tested_on": "HER-2/neu positive breast cancer that has metastasized", "experiment": "Treatment of a patient with metastasized HER-2/neu positive breast cancer", "assay_type": "in vivo, human", "protocol": "Breast cancer is determined to have metastasized to lung and liver three years after a mastectomy is performed on a patient with HER-2/neu positive breast cancer. The patient is treated with oral doses of Celebrex® of 400 mg twice a day or of Vioxx® of 50 mg per day.\nAfter three months, the Celebrex® or Vioxx® was continued in combination regimen with Taxol® at a dose of 175 mg/m^2 administered intravenously every three weeks.\nBreast cancer is determined to have metastasized to bone nine years after a mastectomy is performed on a patient with HER-2/neu positive breast cancer.\nAfter 90 days, oral cyclophosphamide at a dose of 3 mg/kg/day and doxoribicin administered intravenously weekly at a dose of 20 mg/m^2, are added to the drug regimen."}, "COX-2 in 184B5/HER cells": {"tested_on": "COX-2 in 184B5/HER cells", "experiment": "Amounts of COX-2 in 184B5/HER cells after treatment with MAP kinase inhibitors", "assay_type": "cell-based, human", "source_text": "The cells used were 184B5 and 184B5/HER cell lines. They were obtained from a collaborator. The 184B5 cell line is an immortalized but nontumorogenic human breast epithelial cell line that was established from a reduction mammoplasty and is described in Stampfer, M. R., et al., Proc. Natl. Acad. Sci. USA 82, 2394-2398 (1985). The 184B5/HER cell line was derived by stably transfecting 184B5 cells with a mutationally activated human HER-2/neu oncogene; these cells form rapidly growing tumors when injected into athymic nude mice. The 184B5/HER cell line is described in Pierce, J. H., et al., Oncogene 6, 1189-1194(1991). Cells were maintained in MEM (from Life Technologies, Inc. of Grand Island, N.Y.)—KBM, i.e., kerotinocyte basal medium (from Clonetics Corp. of San Diego, Calif.), mixed in a ratio of 1:1. […]\nWestern blotting was carried out to determine whether the differences in PGE2 production were related to differences in amounts of COX enzymes. […] The protein concentration of the supernatant was measured as described in Lowry, O. H., et al., J. Biol. Chem. 193, 265-275 (1951). […]\nThe activity of p44/42 MAP kinase was measured using a nonradioactive method where the assay was performed with a p44/42 MAP kinase activity kit obtained from New England Biolabs (of Beverly, Mass.) using the manufacturer's instructions. […]"}, "[4]": {"settings": "adjuvant therapy alone, oral, five years after a mastectomy (Celebrex 400 mg twice a day; Vioxx 50 mg per day)"}, "[5]": {"settings": "adjuvant therapy with HERCEPTIN (250 mg IV loading, 10 weekly 125 mg IV), oral Celebrex 400 mg twice daily or Vioxx 50 mg daily for one year"}, "[6]": {"settings": "metastasized to bone, after failure of prior chemotherapy, oral Celebrex 400 mg twice a day or Vioxx 50 mg per day plus HERCEPTIN"}, "[7]": {"settings": "metastasized to bone, after 90 days oral cyclophosphamide 3 mg/kg/day and weekly IV doxorubicin 20 mg/m^2 added to the COX-2 inhibitor plus HERCEPTIN regimen"}, "[8]": {"settings": "metastasized to lung and liver, after three months continued in combination with Taxol 175 mg/m^2 IV every three weeks"}, "[9]": {"settings": "metastasized to lung and liver, oral Celebrex 400 mg twice a day or Vioxx 50 mg per day alone"}},
  "data": [
    {"smiles": "Cc1ccc(-c2cc(C(F)(F)F)nn2-c2ccc(S(N)(=O)=O)cc2)cc1", "note": "[Celebrex®, 4-[5-(4-Methylphenyl)-3-(trifluoromethyl)-1H-pyrazol-1-yl]benzenesulfonamide]", "values": [
      {"measurement": "Recurrence of colon cancer", "setting": "[1]", "result": "does not occur"},
      {"measurement": "Recurrence of breast cancer", "setting": "[2]; [4]", "result": "does not occur"},
      {"measurement": "Recurrence of breast cancer", "setting": "[2]; [5]", "result": "does not occur"},
      {"measurement": "tumor burden", "setting": "[3]; [6]", "result": "reduced tumor burden"},
      {"measurement": "tumor burden", "setting": "[3]; [7]", "result": "still further reduced tumor burden"},
      {"measurement": "tumor burden", "setting": "[3]; [8]", "result": "further reduced tumor burden"},
      {"measurement": "tumor burden", "setting": "[3]; [9]", "result": "reduced tumor burden"}
    ]},
    {"smiles": "CS(=O)(=O)c1ccc(C2=C(c3ccccc3)C(=O)OC2)cc1", "note": "[Vioxx®, 3-(Phenyl)-4-(4-(methylsulfonyl)phenyl)-2-(5H)-furanone]", "values": [
      {"measurement": "Recurrence of colon cancer", "setting": "[1]", "result": "does not occur"},
      {"measurement": "Recurrence of breast cancer", "setting": "[2]; [4]", "result": "does not occur"},
      {"measurement": "Recurrence of breast cancer", "setting": "[2]; [5]", "result": "does not occur"},
      {"measurement": "tumor burden", "setting": "[3]; [6]", "result": "reduced tumor burden"},
      {"measurement": "tumor burden", "setting": "[3]; [7]", "result": "still further reduced tumor burden"},
      {"measurement": "tumor burden", "setting": "[3]; [8]", "result": "further reduced tumor burden"},
      {"measurement": "tumor burden", "setting": "[3]; [9]", "result": "reduced tumor burden"}
    ]},
    {"smiles": "COc1cccc(-c2cc(=O)c3ccccc3o2)c1N", "note": "[PD 98059, 2′-amino-3′-methoxyflavone]", "values": [
      {"measurement": "amounts of COX-2", "setting": "COX-2 in 184B5/HER cells", "result": "decrease"}
    ]},
    {"smiles": "Oc1ccc(-c2nc(-c3ccc(F)cc3)c(-c3ccncc3)[nH]2)cc1", "note": "[SB 202190, 4-(4-fluorophenyl)-2-(4-hydroxyphenyl)-5-(4-pyridyl)-1H-imidazole]", "values": [
      {"measurement": "amounts of COX-2", "setting": "COX-2 in 184B5/HER cells", "result": "down-regulated"}
    ]}
  ]
}
